Series [1] can be described thus: Solid-state stability study, accelerated storage 40° C./75% RH, 3 months. It counts as physicochemical. Particulars: sealed container. As to the method: A study was carried out to examine the physical stability of the benzamide cocrystals of the invention with respect to solid form conversion or signs of decomposition over time under both ambient and accelerated conditions. 50 mg each of Cocrystal 1, Cocrystal 2, Cocrystal 4, and Cocrystal 5A were separately placed in a sealed container at 40° C. and 75% relative humidity and stored under these conditions for 3 months. After this time all samples remained unchanged in appearance with no signs of deliquescence and no signs of any colour change.

Series [2] is described as follows: Polymorphism study (preparation methods 1 and 2 in different solvents). It counts as physicochemical. Conditions: methods 1 and 2 using 2-propanol, ethyl acetate, acetonitrile, methyl ethyl ketone and water. As to the method:
As AZD1656 is known to exist in six different crystalline forms an investigation was carried out to examine whether Cocrystal 1 could also exist in multiple polymorphic forms. Preparation methods 1 and 2 described above were carried out using 2-propanol, ethyl acetate, acetonitrile, methyl ethyl ketone and water.
As AZD1656 is known to exist in six different crystalline forms an investigation was carried out to examine whether Cocrystal 2 could also exist in multiple polymorphic forms. Preparation methods 1 and 2 described above were carried out using 2-propanol, ethyl acetate, acetonitrile, methyl ethyl ketone and water.

The nature of series [3]: Solid-state stability study, ambient conditions, 12 months. It counts as physicochemical. Conditions: clear glass vial. On the procedure: A second stability study was carried out where 50 mg each of Cocrystal 1, Cocrystal 2, Cocrystal 3, Cocrystal 4, and Cocrystal 5A were separately placed in a clear glass vial which was then stored under ambient conditions for 12 months. After this time all the cocrystals remained as white solids with no signs of colour change.

The nature of series [4]: Dry milling in ball mill, assessed by eye and by XRPD. It counts as physicochemical. Particulars: dry milled, Retsch MM400 ball mill, 2×15 min at 30 Hz, stainless-steel jar. The text has this: In order to prepare cocrystal samples of similar particle size for a dissolution study and to assess the impact of milling on the crystallinity of the cocrystals, Cocrystal 1, Cocrystal 2, Cocrystal 3, Cocrystal 4 and Cocrystal 5a were dry milled using a ball mill. WO 2012/007758 discloses that to achieve satisfactory dissolution of the benzamide compound particle size reduction was required. […] Thus, a solid form of the benzamide compound that could undergo particle size reduction with an efficient recovery rate without the need to use a co-milling excipient is beneficial. The milled cocrystals, Cocrystal 1, Cocrystal 2, Cocrystal 3, Cocrystal 4 and Cocrystal 5a, were therefore assessed by eye for any potential agglomeration issues or excessive sticking to the walls of the milling vessel that might indicate potential adhesion/cohesion issues such as those of the pure benzamide compound.
200 mg each of Cocrystal 1, Cocrystal 2, Cocrystal 3, Cocrystal 4 and Cocrystal 5a were separately placed in a 25 ml stainless-steel milling jar containing a 1 cm stainless steel ball bearing. Each benzamide cocrystal of the invention was dry milled in a Retsch MM400 ball mill for 2×15 min at 30 Hz. The product was assessed by eye and by XRPD.

For series [5] the following is noted: pure benzamide compound, as disclosed in WO 2012/007758; cited from earlier work.

Take `COC[C@H](C)Oc1cc(Oc2cnc(C(=O)N3CCC3)cn2)cc(C(=O)Nc2cnc(C)cn2)c1.O=C(O)/C=C\C(=O)O` [Cocrystal 2, 1:1 benzamide maleic acid]: in series [1], the Appearance entry is on record as “No change” and the “XRPD analysis (form change)” value was “No change”. Further, the Polymorphic forms obtained entry in series [2] is “single polymorphic form”. Further, in series [3], the Appearance result is listed as “No change” and the “XRPD analysis (form change)” value is listed as “No change”. Further, in series [4], the “Powder flow / agglomeration after milling (by eye)” value (“Powder flow / agglomeration” below) is recorded as “free-flowing powder with no obvious signs of agglomeration”, the “Recoverability from milling chamber / adhesion to walls (by eye)” value is “easily recoverable from the milling chamber with no excessive adhesion to the walls of the milling jar” and the “Signs of loss of crystallinity due to milling (XRPD)” value (“Signs of loss of crystallinity due” for short) is given as “None”.

As for `COC[C@H](C)Oc1cc(Oc2cnc(C(=O)N3CCC3)cn2)cc(C(=O)Nc2cnc(C)cn2)c1.O=C(O)c1cc(O)ccc1O` [Cocrystal 5A, 1:1 benzamide gentisic acid form 1], in series [1], the Appearance entry was “No change” and the “XRPD analysis (form change)” value is “No change”. Also, in series [3], the Appearance entry was “No change” and the “XRPD analysis (form change)” value was “No change”. Moreover, in series [4], the “Powder flow / agglomeration” value was “free-flowing powder with no obvious signs of agglomeration”, the “Recoverability from milling chamber / adhesion to walls (by eye)” value was “easily recoverable from the milling chamber with no excessive adhesion to the walls of the milling jar” and the “Signs of loss of crystallinity due” value is on record as “None”.

In the case of `COC[C@H](C)Oc1cc(Oc2cnc(C(=O)N3CCC3)cn2)cc(C(=O)Nc2cnc(C)cn2)c1.O.O=C(O)C(O)C(O)C(=O)O` [Cocrystal 4, 1:1 benzamide L-tartaric acid hydrate], in series [1], the Appearance result is listed as “No change” and the “XRPD analysis (form change)” value is given as “No change”. In addition, in series [3], the Appearance result is recorded as “No change” and the “XRPD analysis (form change)” value was “No change”. Also, in series [4], the “Powder flow / agglomeration” value was “free-flowing powder with no obvious signs of agglomeration”, the “Recoverability from milling chamber / adhesion to walls (by eye)” value is on record as “easily recoverable from the milling chamber with no excessive adhesion to the walls of the milling jar” and the “Signs of loss of crystallinity due” value is listed as “None”.

Regarding `COC[C@H](C)Oc1cc(Oc2cnc(C(=O)N3CCC3)cn2)cc(C(=O)Nc2cnc(C)cn2)c1` [benzamide compound, 3-{[5-(azetidine-1-ylcarbonyl)pyrazin-2-yl]oxy}-5-{[(1S)-1-methyl-2-(methyloxy)ethyl]oxy}-N-(5-methylpyrazin-2-yl)benzamide], the “Adhesion on dry milling” value in series [5] was “excessive adhesion to the stainless-steel walls of the milling vessel resulting in low recovery yields”.

With `COC[C@H](C)Oc1cc(Oc2cnc(C(=O)N3CCC3)cn2)cc(C(=O)Nc2cnc(C)cn2)c1.O=C(O)CC(=O)O` [Cocrystal 3, 1:1 benzamide malonic acid], in series [3], the Appearance result is “No change” and the “XRPD analysis (form change)” value is reported as “No change”. In series [4], the “Powder flow / agglomeration” value was “free-flowing powder with no obvious signs of agglomeration”, the “Recoverability from milling chamber / adhesion to walls (by eye)” value is “easily recoverable from the milling chamber with no excessive adhesion to the walls of the milling jar” and the “Signs of loss of crystallinity due” value is “None”.

As for `COC[C@H](C)Oc1cc(Oc2cnc(C(=O)N3CCC3)cn2)cc(C(=O)Nc2cnc(C)cn2)c1.O=C(O)/C=C/C(=O)O` [Cocrystal 1, 1:1 benzamide fumaric acid], in series [1], the Appearance entry is “No change” and the “XRPD analysis (form change)” value is given as “No change”. For the same compound, the Polymorphic forms obtained entry in series [2] is “single polymorphic form”. In series [3], the Appearance entry is “No change” and the “XRPD analysis (form change)” value is “No change”. Besides, in series [4], the “Powder flow / agglomeration” value is given as “free-flowing powder with no obvious signs of agglomeration”, the “Recoverability from milling chamber / adhesion to walls (by eye)” value was “easily recoverable from the milling chamber with no excessive adhesion to the walls of the milling jar” and the “Signs of loss of crystallinity due” value is on record as “None”.
